Experimental data taken from DBAASP.
Converted amounts (≈) assume the structure as drawn.

Columns and labels:
Assay in all cases: ≥ marks a high value that may be exact or a test limit, other limits are often not marked, values filed in µg/mL are converted to µM
[1] = system: Aeromonas salmonicida 97-4
[2] = system: Aeromonas salmonicida 99-1
[3] = system: Candida albicans C627
[4] = system: Escherichia coli CGSC 4908
[5] = system: Escherichia coli DC2
[6] = system: Escherichia coli UB1005
[7] = system: Pseudomonas aeruginosa K799
[8] = system: Pseudomonas aeruginosa Z61
[9] = system: Salmonella enterica serovar typhimurium MS7953s
[10] = system: Salmonella enterica subsp. enterica serovar Typhimurium ATCC 14028s
[11] = system: Staphylococcus aureus C623
[12] = system: Staphylococcus epidermidis C621
[13] = system: Pseudomonas aeruginosa H1001
[14] = system: Candida albicans
[15] = system: Corynebacterium jeikeium ATCC BAA-949
[16] = system: Pseudomonas aeruginosa 1
[17] = system: Pseudomonas aeruginosa 2
[18] = system: Pseudomonas aeruginosa ATCC 15692
[19] = system: Pseudomonas aeruginosa ATCC 27853
[20] = system: Pseudomonas aeruginosa PAO1
[21] = system: Pseudomonas aeruginosa
[22] = system: Escherichia coli K88
[23] = system: Escherichia coli O157:H7 CICC 21530
[24] = system: Lacticaseibacillus rhamnosus 1.0911
[25] = system: Lacticaseibacillus rhamnosus 1.0936
[26] = system: Lacticaseibacillus rhamnosus 1.9021
[27] = system: Lacticaseibacillus rhamnosus 8014
[28] = system: Salmonella enterica subsp. enterica serovar Choleraesuis CVCC 503
[29] = system: Salmonella enterica subsp. enterica serovar Pullorum C79-13
[30] = system: Salmonella enterica subsp. enterica serovar Typhimurium ATCC 14028
[31] = system: Staphylococcus aureus ATCC 29213
[32] = system: Staphylococcus aureus ATCC 43300
[33] = system: Staphylococcus epidermidis ATCC 12228
[34] = system: Streptococcus agalactiae BNCC 185941

CC(=O)[C@H](CC(C)C)NC(=O)[C@H](Cc1ccc(O)cc1)NC(=O)[C@H](Cc1cnc[nH]1)NC(=O)[C@H](CC(=O)O)NC(=O)[C@@H](NC(=O)[C@H](C)NC(=O)[C@H](CC(C)C)NC(=O)CNC(=O)CNC(=O)[C@@H](NC(=O)[C@@H](NC(=O)[C@H](CCCCN)NC(=O)CNC(=O)[C@@H](NC(=O)[C@H](CCCCN)NC(=O)[C@H](CCCCN)NC(=O)[C@H](C)NC(=O)[C@H](CCCNC(=N)N)NC(=O)[C@H](CC(N)=O)NC(=O)[C@H](Cc1ccccc1)NC(=O)[C@H](Cc1c[nH]c2ccccc12)NC(=O)[C@H](CCCCN)NC(=O)[C@H](CCCCN)NC(=O)[C@H](Cc1c[nH]c2ccccc12)NC(=O)CN)C(C)C)[C@@H](C)O)C(C)C)C(C)C [GWKKWFNRAKKVGKTVGGLAVDHYL]
MIC [1]: 0.7 µM (≈ 2 µg/mL) | MIC [2]: 0.7 µM (≈ 2 µg/mL) | MIC [3]: 1.4 µM (≈ 4 µg/mL) | MIC [4]: 0.7 µM (≈ 2 µg/mL) | MIC [5]: 0.7 µM (≈ 2 µg/mL) | MIC [6]: 2.8 µM (≈ 7.99 µg/mL) | MIC [7]: 1.4 µM (≈ 4 µg/mL) | MIC [8]: 0.35 µM (≈ 0.999 µg/mL) | MIC [9]: 0.7 µM (≈ 2 µg/mL) | MIC [10]: 2.8 µM (≈ 7.99 µg/mL) | MIC [11]: 5.6 µM (≈ 16 µg/mL) | MIC [12]: 2.8 µM (≈ 7.99 µg/mL)

CC[C@H](C)[C@H](NC(=O)[C@H](C)NC(=O)[C@H](CC(N)=O)NC(=O)[C@@H](N)CCSC)C(=O)N[C@@H](CCCCN)C(=O)N[C@@H](CC(C)C)C(=O)N[C@@H](CC(C)C)C(=O)N[C@@H](CS)C(=O)N[C@@H](CCCN=C(N)N)C(=O)N[C@H](C(=O)O)C(C)C [MNAIKLLCRV]
MIC [13]: 21.5 µM (≈ 25 µg/mL)

CC[C@H](C)[C@H](NC(=O)[C@H](CCCN=C(N)N)NC(=O)[C@H](CCCN=C(N)N)NC(=O)[C@@H]1CCCN1C(=O)[C@@H]1CCCN1C(=O)[C@H](CCCN=C(N)N)NC(=O)[C@@H]1CCCN1C(=O)[C@H](CCCN=C(N)N)NC(=O)[C@@H]1CCCN1C(=O)[C@H](CC(C)C)NC(=O)[C@H](Cc1ccc(O)cc1)NC(=O)[C@@H]1CCCN1C(=O)[C@@H]1CCCN1C(=O)[C@H](CCCCN)NC(=O)[C@H](CC(=O)O)NC(=O)[C@@H](N)C(C)C)C(=O)N[C@@H](Cc1ccc(O)cc1)C(=O)N[C@@H](Cc1ccc(O)cc1)C(=O)N[C@@H](CCCN=C(N)N)C(=O)NCC(=O)O [VDKPPYLPRPRPPRRIYYRG]
MIC [13]: 0.12 µM (≈ 0.3 µg/mL)

CC[C@H](C)[C@H](NC(=O)CN)C(=O)N[C@@H](Cc1ccccc1)C(=O)N[C@@H](CO)C(=O)N[C@@H](CCCCN)C(=O)N[C@@H](CC(C)C)C(=O)N[C@@H](C)C(=O)NCC(=O)N[C@@H](CCCCN)C(=O)N[C@@H](CCCCN)C(=O)N[C@@H](CC(C)C)C(=O)N[C@@H](CCCCN)C(=O)N[C@@H](CC(N)=O)C(=O)N[C@@H](CC(C)C)C(=O)N[C@@H](CC(C)C)C(=O)N[C@H](C(=O)N[C@@H](CO)C(=O)NCC(N)=O)[C@@H](C)CC [GIFSKLAGKKLKNLLISG]
MIC [14]: 2.83 µM (≈ 5.34 µg/mL) | MIC [15]: 4 µM (≈ 7.55 µg/mL) | MIC [16]: 8 µM (≈ 15.1 µg/mL) | MIC [17]: 16 µM (≈ 30.2 µg/mL) | MIC [18]: 8 µM (≈ 15.1 µg/mL) | MIC [19]: 8 µM (≈ 15.1 µg/mL) | MIC [20]: 8 µM (≈ 15.1 µg/mL) | MIC [21]: 8 µM (≈ 15.1 µg/mL)

CC(C)C[C@H](NC(=O)CNC(=O)[C@H](CC(C)C)NC(=O)[C@H](Cc1c[nH]c2ccccc12)NC(=O)[C@H](CC(C)C)NC(=O)CNC(=O)[C@H](CC(C)C)NC(=O)[C@H](CCCCN)NC(=O)[C@H](CCCCN)NC(=O)CN)C(=O)N[C@@H](CCCCN)C(=O)N[C@@H](CCCCN)C(=O)NCC(N)=O [GKKLGLWLGLKKG]
MIC [22]: 4 µM (≈ 5.59 µg/mL) | MIC [23]: 8 µM (≈ 11.2 µg/mL) | MIC [24]: ≥ 128 µM | MIC [25]: ≥ 128 µM | MIC [26]: ≥ 128 µM | MIC [27]: ≥ 128 µM | MIC [19]: 16 µM (≈ 22.3 µg/mL) | MIC [20]: 32 µM (≈ 44.7 µg/mL) | MIC [28]: ≥ 32 µM | MIC [29]: 16 µM (≈ 22.3 µg/mL) | MIC [30]: 32 µM (≈ 44.7 µg/mL) | MIC [31]: > 128 µM | MIC [32]: > 128 µM | MIC [33]: > 128 µM | MIC [34]: ≥ 128 µM

CC(C)C[C@H](NC(=O)CNC(=O)[C@H](CCCCN)NC(=O)[C@H](CC(C)C)NC(=O)[C@H](CC(C)C)NC(=O)[C@H](CCCCN)NC(=O)[C@@H](N)CCCCN)C(=O)N[C@@H](CC(C)C)C(=O)N[C@@H](CCCCN)C(=O)NCC(=O)N[C@@H](Cc1c[nH]c2ccccc12)C(N)=O [KKLLKGLLKGW]
MIC [22]: 16 µM (≈ 20.5 µg/mL) | MIC [23]: ≥ 64 µM | MIC [24]: ≥ 128 µM | MIC [25]: ≥ 128 µM | MIC [26]: ≥ 128 µM | MIC [27]: ≥ 128 µM | MIC [19]: 32 µM (≈ 41 µg/mL) | MIC [20]: 64 µM (≈ 82.1 µg/mL) | MIC [28]: ≥ 64 µM | MIC [29]: ≥ 32 µM | MIC [30]: 32 µM (≈ 41 µg/mL) | MIC [31]: > 128 µM | MIC [32]: > 128 µM | MIC [33]: > 128 µM | MIC [34]: ≥ 128 µM

CC(C)C[C@H](NC(=O)[C@H](Cc1ccc(O)cc1)NC(=O)[C@H](C)NC(=O)[C@@H](NC(=O)[C@H](CC(C)C)NC(=O)[C@H](C)NC(=O)[C@H](C)NC(=O)[C@H](CCCCN)NC(=O)CNC(=O)[C@@H](NC(=O)[C@H](Cc1cnc[nH]1)NC(=O)[C@H](CCCCN)NC(=O)CNC(=O)[C@@H](NC(=O)[C@H](Cc1cnc[nH]1)NC(=O)[C@@H](NC(=O)[C@H](C)NC(=O)[C@H](CCCCN)NC(=O)[C@H](CCCCN)NC(=O)[C@H](Cc1ccccc1)NC(=O)[C@H](Cc1c[nH]c2ccccc12)NC(=O)[C@H](CCCCN)NC(=O)CNC(=O)[C@H](Cc1c[nH]c2ccccc12)NC(=O)[C@@H](N)CCCN=C(N)N)[C@@H](C)O)C(C)C)C(C)C)[C@@H](C)O)C(N)=O [RWGKWFKKATHVGKHVGKAALTAYL]
MIC [1]: 0.701 µM (≈ 2 µg/mL) | MIC [2]: 1.4 µM (≈ 4 µg/mL) | MIC [3]: 5.61 µM (≈ 16 µg/mL) | MIC [4]: 1.4 µM (≈ 4 µg/mL) | MIC [5]: 1.4 µM (≈ 4 µg/mL) | MIC [6]: 1.4 µM (≈ 4 µg/mL) | MIC [7]: 1.4 µM (≈ 4 µg/mL) | MIC [8]: 0.701 µM (≈ 2 µg/mL) | MIC [9]: 0.701 µM (≈ 2 µg/mL) | MIC [10]: 2.8 µM (≈ 8 µg/mL) | MIC [11]: 22.4 µM (≈ 64 µg/mL) | MIC [12]: 22.4 µM (≈ 64 µg/mL)
